{"source": "paper PMC7316994", "about": "“In Vitro Pharmacological Profile of a New Small Molecule Bradykinin B2 Receptor Antagonist” (Frontiers in Pharmacology, 2020)", "key": {"Cannabinoid CB1": {"biological_target": "Cannabinoid CB1 (Homo sapiens, UniProt P21554)", "sequence (P21554 whole entry)": "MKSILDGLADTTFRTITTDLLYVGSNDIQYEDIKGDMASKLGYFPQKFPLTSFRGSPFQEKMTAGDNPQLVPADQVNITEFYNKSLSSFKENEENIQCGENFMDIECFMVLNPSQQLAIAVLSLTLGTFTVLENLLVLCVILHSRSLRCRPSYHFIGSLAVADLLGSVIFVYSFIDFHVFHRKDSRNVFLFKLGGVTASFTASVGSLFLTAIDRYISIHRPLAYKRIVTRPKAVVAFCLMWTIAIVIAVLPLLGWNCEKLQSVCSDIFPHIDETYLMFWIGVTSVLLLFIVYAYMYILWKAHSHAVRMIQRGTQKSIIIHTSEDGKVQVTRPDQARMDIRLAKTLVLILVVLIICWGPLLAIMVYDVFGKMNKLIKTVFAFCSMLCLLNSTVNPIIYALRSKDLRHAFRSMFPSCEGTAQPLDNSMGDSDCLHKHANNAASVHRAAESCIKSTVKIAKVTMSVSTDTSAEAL", "assay": "radioligand binding (Table S2)", "conditions": "read-out: % Inhibition @ 10 µM"}, "[1]": {"biological_target": "T1, Vasoactive intestinal peptide VPAC1 (VIP1) (Homo sapiens, UniProt P32241)", "T1 construct": "host or cells: CHO cells", "T1 sequence (P32241 31-457)": "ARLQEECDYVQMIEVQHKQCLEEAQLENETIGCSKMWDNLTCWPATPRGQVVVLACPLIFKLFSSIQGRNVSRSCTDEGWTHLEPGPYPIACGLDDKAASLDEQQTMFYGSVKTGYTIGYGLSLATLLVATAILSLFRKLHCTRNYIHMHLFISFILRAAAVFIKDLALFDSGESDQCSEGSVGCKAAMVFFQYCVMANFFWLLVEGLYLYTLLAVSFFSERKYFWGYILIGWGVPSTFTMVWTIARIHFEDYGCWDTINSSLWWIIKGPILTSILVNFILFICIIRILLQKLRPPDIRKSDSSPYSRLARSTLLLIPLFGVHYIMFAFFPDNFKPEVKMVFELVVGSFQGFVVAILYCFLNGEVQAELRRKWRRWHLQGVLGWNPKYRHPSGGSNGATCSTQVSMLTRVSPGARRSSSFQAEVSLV", "assay": "radioligand binding (Table S2)", "conditions": "[125I] VIP, Human recombinant CHO cells"}, "[2]": {"tested_on": "Glutamate ionotropic, NMDA", "assay": "radioligand binding (Table S2)", "conditions": "[3H] CGP 39653, Rat cerebral cortex"}, "[3]": {"biological_target": "T2, Melanin-concentrating hormone receptor MCH1 (Homo sapiens, UniProt Q99705)", "T2 construct": "host or cells: CHO cells", "assay": "radioligand binding (Table S2)", "conditions": "[125I] [Phe13, Tyr19]-MCH, Human recombinant CHO cells"}, "[4]": {"biological_target": "T3, Cysteinyl leukotriene receptor CysLT2 (Homo sapiens, UniProt Q9NS75)", "T3 construct": "host or cells: HEK-293 cells", "T3 sequence (Q9NS75 whole entry)": "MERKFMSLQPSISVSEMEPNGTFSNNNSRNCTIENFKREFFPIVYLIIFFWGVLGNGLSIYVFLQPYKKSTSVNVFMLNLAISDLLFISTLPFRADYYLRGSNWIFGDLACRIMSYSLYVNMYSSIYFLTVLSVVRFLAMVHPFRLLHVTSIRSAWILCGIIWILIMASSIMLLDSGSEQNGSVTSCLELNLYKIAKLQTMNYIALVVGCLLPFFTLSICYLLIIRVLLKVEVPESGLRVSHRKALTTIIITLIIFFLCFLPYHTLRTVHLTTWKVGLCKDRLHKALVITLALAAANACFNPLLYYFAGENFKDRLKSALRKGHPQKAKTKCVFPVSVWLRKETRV", "assay": "radioligand binding (Table S2)", "conditions": "[3H] LTD4, Human recombinant HEK-293 cells"}, "Adenosine A1": {"biological_target": "Adenosine A1 (Homo sapiens, UniProt P30542)", "assay": "radioligand binding (Table S2)", "conditions": "[3H] DPCPX, Human recombinant CHO cells"}, "Potassium channel KATP": {"tested_on": "Potassium channel KATP", "assay": "radioligand binding (Table S2)", "conditions": "[3H] Glibenclamide, Rat cerebral cortex"}, "Oxytocin": {"biological_target": "T4, Oxytocin (Homo sapiens, UniProt P30559)", "T4 construct": "host or cells: Chem-1 cells", "assay": "radioligand binding (Table S2)", "conditions": "[3H] Oxytocin, Human recombinant Chem-1 cells"}, "Vasopressin V1a": {"biological_target": "T5, Vasopressin V1a (Homo sapiens, UniProt P37288)", "T5 construct": "host or cells: CHO cells", "T5 sequence (P37288 whole entry)": "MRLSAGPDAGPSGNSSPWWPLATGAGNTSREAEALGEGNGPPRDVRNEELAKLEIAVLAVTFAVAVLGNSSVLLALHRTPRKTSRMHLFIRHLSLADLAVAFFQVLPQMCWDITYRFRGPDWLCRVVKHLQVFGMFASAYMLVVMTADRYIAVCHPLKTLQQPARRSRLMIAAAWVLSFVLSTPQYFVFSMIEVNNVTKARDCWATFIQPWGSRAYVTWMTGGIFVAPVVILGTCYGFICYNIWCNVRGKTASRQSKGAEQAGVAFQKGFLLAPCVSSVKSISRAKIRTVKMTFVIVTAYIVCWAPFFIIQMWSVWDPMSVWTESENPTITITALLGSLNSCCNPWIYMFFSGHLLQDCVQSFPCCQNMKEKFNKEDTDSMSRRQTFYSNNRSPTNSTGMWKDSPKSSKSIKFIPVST", "assay": "functional assay, intracellular [Ca2+], CHO cells (Table S2)", "type": "cell-based", "conditions": "AVP (10 nM)"}, "Somatostatin sst1": {"biological_target": "Somatostatin sst1 (Homo sapiens, UniProt P30872)", "sequence (P30872 whole entry)": "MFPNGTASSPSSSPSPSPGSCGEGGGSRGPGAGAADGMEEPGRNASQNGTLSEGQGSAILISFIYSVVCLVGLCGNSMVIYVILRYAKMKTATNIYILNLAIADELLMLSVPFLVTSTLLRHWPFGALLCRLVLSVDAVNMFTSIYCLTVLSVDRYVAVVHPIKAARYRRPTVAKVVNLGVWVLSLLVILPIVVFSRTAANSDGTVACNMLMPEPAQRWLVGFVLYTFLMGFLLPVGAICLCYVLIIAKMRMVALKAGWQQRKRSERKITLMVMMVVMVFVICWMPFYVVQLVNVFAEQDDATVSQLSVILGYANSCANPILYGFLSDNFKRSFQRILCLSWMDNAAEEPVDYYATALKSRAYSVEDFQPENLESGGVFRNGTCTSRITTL", "assay": "radioligand binding (Table S2)", "conditions": "[125I] Tyr11-Somatostatin 14, Human recombinant CHO-S cells"}, "[5]": {"tested_on": "panel of G protein-coupled receptors (GPCRs), ion channels, enzymes and transporters"}, "Dopamine D3": {"biological_target": "T6, Dopamine D3 (Homo sapiens, UniProt P35462)", "T6 construct": "host or cells: CHO cells", "T6 sequence (P35462 whole entry)": "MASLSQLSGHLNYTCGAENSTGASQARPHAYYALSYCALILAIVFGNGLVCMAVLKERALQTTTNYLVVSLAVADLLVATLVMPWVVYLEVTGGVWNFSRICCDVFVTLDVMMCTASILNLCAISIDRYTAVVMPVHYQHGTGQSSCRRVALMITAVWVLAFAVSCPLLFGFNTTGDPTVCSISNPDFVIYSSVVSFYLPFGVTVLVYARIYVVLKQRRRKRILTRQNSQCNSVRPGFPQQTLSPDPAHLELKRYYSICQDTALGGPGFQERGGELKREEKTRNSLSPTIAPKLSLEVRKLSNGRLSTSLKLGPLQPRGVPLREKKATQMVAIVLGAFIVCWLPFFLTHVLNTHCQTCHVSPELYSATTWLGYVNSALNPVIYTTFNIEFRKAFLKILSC", "assay": "radioligand binding (Table S2)", "conditions": "[3H] Methylspiperone, Human recombinant CHO cells"}, "Vasopressin V1B": {"biological_target": "T7, Vasopressin V1B (Homo sapiens, UniProt P47901)", "T7 construct": "expressed in transfected cells; host or cells: RBL cells", "T7 sequence (P47901 whole entry)": "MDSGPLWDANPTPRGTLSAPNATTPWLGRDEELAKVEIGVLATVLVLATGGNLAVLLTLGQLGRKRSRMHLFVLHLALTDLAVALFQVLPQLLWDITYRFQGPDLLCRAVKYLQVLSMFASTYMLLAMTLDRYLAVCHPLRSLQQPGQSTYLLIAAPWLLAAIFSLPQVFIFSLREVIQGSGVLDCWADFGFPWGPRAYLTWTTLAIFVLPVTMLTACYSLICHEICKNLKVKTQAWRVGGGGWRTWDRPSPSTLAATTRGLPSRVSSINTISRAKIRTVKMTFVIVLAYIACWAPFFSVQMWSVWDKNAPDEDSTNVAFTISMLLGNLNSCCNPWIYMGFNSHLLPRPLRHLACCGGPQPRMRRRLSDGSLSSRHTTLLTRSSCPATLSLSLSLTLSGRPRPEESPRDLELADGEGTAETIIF", "assay": "functional assay, intracellular [Ca2+], RBL cells (Table S2)", "type": "cell-based", "conditions": "read-out: % inhibition of reference agonist response @ 10 µM (antagonist effect), Vasopressin (5 nM)"}, "Purinergic receptor P2X": {"tested_on": "Purinergic receptor P2X", "assay": "radioligand binding (Table S2)", "conditions": "[3H] α,β-MeATP, Rat urinary bladder"}, "human myc-B2 receptor": {"biological_target": "T8, human myc-B2 receptor (Homo sapiens, UniProt P30411)", "T8 construct": "expressed in transfected cells", "T8 sequence (P30411 1-391)": "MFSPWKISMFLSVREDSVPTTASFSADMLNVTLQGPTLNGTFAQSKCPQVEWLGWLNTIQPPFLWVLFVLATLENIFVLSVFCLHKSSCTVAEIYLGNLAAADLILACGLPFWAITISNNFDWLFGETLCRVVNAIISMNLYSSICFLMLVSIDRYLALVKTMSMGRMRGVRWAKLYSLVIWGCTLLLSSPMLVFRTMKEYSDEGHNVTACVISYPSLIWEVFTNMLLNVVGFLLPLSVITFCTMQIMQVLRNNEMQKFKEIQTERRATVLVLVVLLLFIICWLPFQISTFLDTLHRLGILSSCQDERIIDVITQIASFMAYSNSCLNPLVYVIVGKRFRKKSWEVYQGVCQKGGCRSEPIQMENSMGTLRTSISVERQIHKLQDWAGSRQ", "assay": "c-Fos immunoblot, HEK 293a cells stably expressing myc-B2 receptor", "type": "cell-based", "conditions": "BK 10 nM", "description": "Supplementary Methods: Immunoblots for c-Fos signaling\nThe construction of myc-tagged B2 receptor expression vector containing the human receptor sequence has been recently reported, as well as the derivation of HEK293a cell lines that stably express the construction (Charest-Morin et al., 2015). Immunoblotting experiments, conducted as described (Koumbadinga et al., 2010), were used to study the effect of selected antagonists on BK-induced signaling. Briefly, HEK 293a cells stably expressing the human myc-B2 receptor were stimulated with BK agonists for 60 min at 37°C, with or without a pretreatment with the antagonist (applied 15 min before BK). Total cell extracts were immunoblotted to detect c-Fos expression using the K-25 rabbit polyclonal antibodies (Santa Cruz Biotechnology, Dallas, TX; dilution 1:50,000). In these experiments, β-actin was used as a loading control and was detected using the monoclonal anti-β-actin antibody, clone AC-15 (Sigma-Aldrich; dilution 1:50,000)."}, "Neurokinin NK1": {"biological_target": "Neurokinin NK1 (Homo sapiens, UniProt P25103)", "sequence (P25103 whole entry)": "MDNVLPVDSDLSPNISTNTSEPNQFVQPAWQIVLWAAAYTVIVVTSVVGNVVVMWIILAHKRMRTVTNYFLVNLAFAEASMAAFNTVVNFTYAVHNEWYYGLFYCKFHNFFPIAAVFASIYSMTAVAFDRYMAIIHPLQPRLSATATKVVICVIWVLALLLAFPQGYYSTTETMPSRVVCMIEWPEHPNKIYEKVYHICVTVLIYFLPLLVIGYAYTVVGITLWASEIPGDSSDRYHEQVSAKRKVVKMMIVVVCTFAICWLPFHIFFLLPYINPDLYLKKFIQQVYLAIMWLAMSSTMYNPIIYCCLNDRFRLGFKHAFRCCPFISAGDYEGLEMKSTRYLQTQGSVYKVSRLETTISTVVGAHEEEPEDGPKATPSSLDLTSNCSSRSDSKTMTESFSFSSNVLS", "type": "cell-based"}, "Neurotensin NT1": {"biological_target": "Neurotensin NT1 (Homo sapiens, UniProt P30989)", "sequence (P30989 whole entry)": "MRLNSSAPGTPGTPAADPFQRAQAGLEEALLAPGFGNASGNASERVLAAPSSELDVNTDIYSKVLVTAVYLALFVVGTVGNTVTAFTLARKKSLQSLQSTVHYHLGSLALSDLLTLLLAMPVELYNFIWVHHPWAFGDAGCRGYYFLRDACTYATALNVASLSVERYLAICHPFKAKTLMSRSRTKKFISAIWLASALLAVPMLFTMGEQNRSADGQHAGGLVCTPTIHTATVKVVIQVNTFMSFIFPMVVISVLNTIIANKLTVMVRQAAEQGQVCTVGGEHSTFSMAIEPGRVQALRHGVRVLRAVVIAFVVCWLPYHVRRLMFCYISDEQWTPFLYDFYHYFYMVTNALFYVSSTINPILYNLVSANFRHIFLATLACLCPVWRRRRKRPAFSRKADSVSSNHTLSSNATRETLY", "assay": "radioligand binding (Table S2)", "conditions": "[125I] Neurotensin, Human recombinant HEK-293 cells"}, "[6]": {"tested_on": "Benzodiazepine BZD (central)", "assay": "radioligand binding (Table S2)", "conditions": "[3H] Flunitrazepam, Rat cerebral cortex"}, "Urotensin UT": {"biological_target": "T9, Urotensin UT (Homo sapiens, UniProt Q9UKP6)", "T9 construct": "host or cells: CHO cells", "T9 sequence (Q9UKP6 whole entry)": "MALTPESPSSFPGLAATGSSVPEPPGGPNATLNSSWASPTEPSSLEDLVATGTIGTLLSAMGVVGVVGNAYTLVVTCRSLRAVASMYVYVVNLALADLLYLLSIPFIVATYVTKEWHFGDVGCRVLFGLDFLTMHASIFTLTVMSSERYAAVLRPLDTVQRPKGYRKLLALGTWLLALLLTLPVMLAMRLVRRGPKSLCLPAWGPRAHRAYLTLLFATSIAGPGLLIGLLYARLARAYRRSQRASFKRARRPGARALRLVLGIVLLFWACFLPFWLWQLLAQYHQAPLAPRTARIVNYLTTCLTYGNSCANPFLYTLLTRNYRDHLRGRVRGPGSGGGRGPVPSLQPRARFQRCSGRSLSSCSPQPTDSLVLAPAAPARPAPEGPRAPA", "assay": "radioligand binding (Table S2)", "conditions": "[125I] Urotensin-II, Human recombinant CHO cells"}, "Muscarinic M1": {"biological_target": "Muscarinic M1 (Homo sapiens, UniProt P11229)", "assay": "radioligand binding (Table S2)", "conditions": "read-out: % Inhibition @ 10 µM"}, "Chemokine CXCR2 (IL-8RB)": {"biological_target": "Chemokine CXCR2 (IL-8RB) (Homo sapiens, UniProt P25025)", "sequence (P25025 whole entry)": "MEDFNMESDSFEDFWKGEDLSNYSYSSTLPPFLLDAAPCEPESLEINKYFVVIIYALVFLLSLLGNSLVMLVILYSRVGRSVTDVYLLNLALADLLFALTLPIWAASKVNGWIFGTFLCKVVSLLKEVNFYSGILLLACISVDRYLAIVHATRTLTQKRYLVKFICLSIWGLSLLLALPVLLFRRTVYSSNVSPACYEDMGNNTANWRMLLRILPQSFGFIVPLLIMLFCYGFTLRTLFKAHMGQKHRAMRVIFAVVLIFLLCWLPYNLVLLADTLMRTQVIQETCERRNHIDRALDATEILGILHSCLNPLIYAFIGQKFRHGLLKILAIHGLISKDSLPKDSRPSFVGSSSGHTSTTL", "assay": "radioligand binding (Table S2)", "conditions": "[125I] IL-8, Human recombinant CHO-K1 cells"}, "Galanin GAL1": {"biological_target": "Galanin GAL1 (Homo sapiens, UniProt P47211)", "sequence (P47211 whole entry)": "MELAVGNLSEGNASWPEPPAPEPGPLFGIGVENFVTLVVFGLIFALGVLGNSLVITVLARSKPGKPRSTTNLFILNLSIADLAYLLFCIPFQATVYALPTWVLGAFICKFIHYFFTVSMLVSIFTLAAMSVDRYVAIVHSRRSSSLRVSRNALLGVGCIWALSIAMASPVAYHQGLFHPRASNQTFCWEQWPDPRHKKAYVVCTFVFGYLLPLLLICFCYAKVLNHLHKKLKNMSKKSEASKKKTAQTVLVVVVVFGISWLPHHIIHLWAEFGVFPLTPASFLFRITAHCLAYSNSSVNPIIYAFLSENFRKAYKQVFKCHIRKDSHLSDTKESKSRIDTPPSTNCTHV", "assay": "radioligand binding (Table S2)", "conditions": "[125I] Galanin, Human recombinant HEK-293 cells"}, "Opioid µ (MOP)": {"biological_target": "T10, Opioid µ (MOP) (Homo sapiens, UniProt P35372)", "T10 construct": "host or cells: HEK-293 cells", "assay": "radioligand binding (Table S2)", "conditions": "[3H] DAMGO, Human recombinant HEK-293 cells"}}, "data": [{"smiles": "Cc1cc(-c2ncnn2C)c2cccc(OCc3c(Cl)cc(F)cc3[C@H](C)NC(=O)COC(F)F)c2n1", "note": "[Compound 3, (S)-N-(1-(3-chloro-5-fluoro-2-((2-methyl-4-(1-methyl-1H-1,2,4-triazol-5-yl)quinolin-8-yloxy)methyl)phenyl)ethyl)-2-(difluoromethoxy)acetamide]", "values": [{"measurement": "inhibition at 10 µM", "setting": "Cannabinoid CB1", "value": -3, "unit": "%"}, {"measurement": "inhibition at 10 µM", "setting": "[1]", "value": 0.8, "unit": "%"}, {"measurement": "% Inhibition @ 10 µM", "setting": "[2]", "value": 5.1, "unit": "%"}, {"measurement": "inhibition at 10 µM", "setting": "[3]", "value": 13.4, "unit": "%"}, {"measurement": "inhibition at 10 µM", "setting": "[4]", "value": -6, "unit": "%"}, {"measurement": "inhibition at 10 µM", "setting": "Adenosine A1", "value": 12.4, "unit": "%"}, {"measurement": "% Inhibition @ 10 µM", "setting": "Potassium channel KATP", "value": 2.3, "unit": "%"}, {"measurement": "inhibition at 10 µM", "setting": "Oxytocin", "value": 5, "unit": "%"}, {"measurement": "IC50", "setting": "Vasopressin V1a; read-out: IC50 (µM), functional antagonism", "value": 9.1, "unit": "µM"}, {"measurement": "Kb", "setting": "Vasopressin V1a; read-out: Kb (µM), functional antagonism", "value": 0.31, "unit": "µM"}, {"measurement": "inhibition at 10 µM", "setting": "Vasopressin V1a; CHO, read-out: % inhibition of reference agonist response @ 10 µM (antagonist effect), 10 µM", "value": 51.9, "unit": "%"}, {"measurement": "inhibition at 10 µM", "setting": "Somatostatin sst1", "value": -2, "unit": "%"}, {"measurement": "inhibition of binding or functional activity at most targets", "setting": "[5]; 10 μM, most targets incl. bradykinin B1 and angiotensin AT1, except V1a, CRF1, EP1, TP, NK1", "value": "< 50", "unit": "%"}, {"measurement": "agonism at V1a, CRF1, TP, NK1, NK3", "setting": "[5]; full concentration-response curves, agonist mode", "value": "no agonism"}, {"measurement": "inhibition at 10 µM", "setting": "Dopamine D3", "value": 4.8, "unit": "%"}, {"measurement": "inhibition at 10 µM", "setting": "Vasopressin V1B", "value": 7.7, "unit": "%"}, {"measurement": "% Inhibition @ 10 µM", "setting": "Purinergic receptor P2X", "value": 6.3, "unit": "%"}, {"measurement": "antagonist concentration that significantly reduced the c-Fos response to BK", "setting": "human myc-B2 receptor; 60 min", "value": "significant effect at equimolar concentration"}, {"measurement": "effect on BK-induced c-Fos accumulation", "setting": "human myc-B2 receptor; co-treatment between 10 nM and 1 μM", "value": "inhibited this response in a concentration-dependent manner"}, {"measurement": "% of reference agonist response @ 10 µM (agonist effect)", "setting": "Neurokinin NK1; 10 µM, reference [Sar9,Met(O2)11]-SP (30 nM)", "value": -5.2, "unit": "%"}, {"measurement": "IC50", "setting": "Neurokinin NK1; [Sar9,Met(O2)11]-SP (1 nM), read-out: IC50 (µM), functional antagonism", "value": 17, "unit": "µM"}, {"measurement": "Kb", "setting": "Neurokinin NK1; [Sar9,Met(O2)11]-SP (1 nM), read-out: Kb (µM), functional antagonism", "value": 2.4, "unit": "µM"}, {"measurement": "inhibition at 10 µM", "setting": "Neurotensin NT1", "value": 4, "unit": "%"}, {"measurement": "% Inhibition @ 10 µM", "setting": "[6]", "value": -25.8, "unit": "%"}, {"measurement": "inhibition at 10 µM", "setting": "Urotensin UT", "value": 13.5, "unit": "%"}, {"measurement": "inhibition at 10 µM", "setting": "Muscarinic M1", "value": 3.7, "unit": "%"}, {"measurement": "inhibition at 10 µM", "setting": "Chemokine CXCR2 (IL-8RB)", "value": 17, "unit": "%"}, {"measurement": "inhibition at 10 µM", "setting": "Galanin GAL1", "value": 22.4, "unit": "%"}, {"measurement": "inhibition at 10 µM", "setting": "Opioid µ (MOP)", "value": 13.6, "unit": "%"}]}]}
